Experiments:
Assay type in all cases: in vivo
Kochia (Kochia scoparia) [1] = experiment: Test A preemergence; conditions: Bassia scoparia, pre-emergence, 240 h
Procedure, shortened: (§1)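 Seeds sprayed preemergence with a directed soil spray, or plants at 2 to 10 cm height and one- to two-leaf stage sprayed postemergence, with test chemicals in a non-phytotoxic solvent mixture containing surfactant, in loam soil–sand blend. Injury rated visually against untreated controls after about 10 d in greenhouse, 0 (no effect) to 100 (complete control).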

[2] = system: barnyardgrass (Echinochloa crus-galli); experiment: Test A preemergence; conditions: Echinochloa crus-galli, pre-emergence, 240 h
Procedure, shortened: as §1

[3] = system: giant foxtail (Setaria faberii); experiment: Test A preemergence; conditions: Setaria faberi, pre-emergence, 240 h
Procedure, shortened: as §1

[4] = system: pigweed (Amaranthus retroflexus); experiment: Test A preemergence; conditions: Amaranthus retroflexus, pre-emergence, 240 h
[5] = system: ragweed (common ragweed, Ambrosia elatior); experiment: Test A preemergence; conditions: Ambrosia artemisiifolia, pre-emergence, 240 h
Procedure, shortened: as §1

[6] = system: ryegrass, Italian (Italian ryegrass, Lolium multiflorum); experiment: Test A preemergence; conditions: Lolium multiflorum, pre-emergence, 240 h
Procedure, shortened: as §1

[7] = system: Galium (catchweed bedstraw, Galium aparine); experiment: Test A postemergence; conditions: Galium, post-emergence, 240 h, postemergence, approx. 10 d
Procedure, shortened: as §1

Kochia (Kochia scoparia) [8] = experiment: Test A postemergence; conditions: Bassia scoparia, post-emergence, 240 h, postemergence, approx. 10 d
Procedure, shortened: as §1

[9] = system: barnyardgrass (Echinochloa crus-galli); experiment: Test A postemergence; conditions: Echinochloa crus-galli, post-emergence, 240 h, read-out: Plant response rating, Barnyardgrass
Procedure, shortened: as §1

[10] = system: blackgrass (Alopecurus myosuroides); experiment: Test A postemergence; conditions: Alopecurus myosuroides, post-emergence, 240 h, read-out: Plant response rating, Blackgrass
Procedure, shortened: as §1

corn (Zea mays) = experiment: Test A postemergence; conditions: Zea mays, post-emergence, 240 h
Procedure, shortened: as §1

[11] = system: giant foxtail (Setaria faberii); experiment: Test A postemergence; conditions: Setaria faberi, post-emergence, 240 h, postemergence, approx. 10 d
Procedure, shortened: as §1

[12] = system: pigweed (Amaranthus retroflexus); experiment: Test A postemergence; conditions: Amaranthus retroflexus, post-emergence, 240 h, 125 g ai/ha, postemergence; visual injury on 0 to 100 scale (0 no effect, 100 complete control), approx. 10 d; read-out: Pigweed plant response rating
Procedure, shortened: as §1

[13] = system: ragweed (common ragweed, Ambrosia elatior); experiment: Test A postemergence; conditions: Ambrosia artemisiifolia, post-emergence, 240 h, 125 g ai/ha, postemergence; visual injury on 0 to 100 scale (0 no effect, 100 complete control), approx. 10 d; read-out: Ragweed plant response rating
Procedure, shortened: as §1

[14] = system: ryegrass, Italian (Italian ryegrass, Lolium multiflorum); experiment: Test A postemergence; conditions: Lolium multiflorum, post-emergence, 240 h, 125 g ai/ha, postemergence; visual injury on 0 to 100 scale (0 no effect, 100 complete control), approx. 10 d; read-out: Ryegrass, Italian plant response rating
Procedure, shortened: as §1

[15] = system: wheat (Triticum aestivum); experiment: Test A postemergence; conditions: Triticum aestivum, post-emergence, 240 h, 125 g ai/ha, postemergence; visual injury on 0 to 100 scale (0 no effect, 100 complete control), approx. 10 d; read-out: Wheat plant response rating
Procedure, shortened: as §1

[16] = 125 g ai/ha, Postemergence, visual injury after approximately 10 d, 0 to 100 scale where 0 is no effect and 100 is complete control
[17] = 500 g ai/ha, postemergence, visual injury, 0 to 100 scale (0 no effect, 100 complete control), approx. 10 d

## Cc1ccc([C@H]2CN(C)C(=O)[C@@H]2C(=O)Nc2cccc(F)c2F)cc1C [Compound 1039]
Kochia (Kochia scoparia) [1]; 125 g ai/ha, Preemergence, visual injury rating after approximately 10 d, read-out: Kochia plant response rating (0 to 100 scale, 0 is no effect, 100 is complete control)
  pest or weed control at 125 g/ha: 80%
Kochia (Kochia scoparia) [1]; 500 g ai/ha, preemergence, visual injury rating about 10 d after treatment, 0 to 100 scale (0 no effect, 100 complete control), read-out: Kochia plant response rating
  pest or weed control at 500 g/ha: 100%
[2]; 125 g ai/ha, Preemergence, visual injury rating after approximately 10 d, read-out: Barnyardgrass plant response rating (0 to 100 scale, 0 is no effect, 100 is complete control)
  pest or weed control at 125 g/ha: 90%
[2]; 500 g ai/ha, preemergence, visual injury rating about 10 d after treatment, 0 to 100 scale (0 no effect, 100 complete control), read-out: Barnyardgrass plant response rating
  pest or weed control at 500 g/ha: 100%
[3]; 125 g ai/ha, Preemergence, visual injury rating after approximately 10 d, read-out: Foxtail, Giant plant response rating (0 to 100 scale, 0 is no effect, 100 is complete control)
  pest or weed control at 125 g/ha: 90%
[3]; 500 g ai/ha, preemergence, visual injury rating about 10 d after treatment, 0 to 100 scale (0 no effect, 100 complete control), read-out: Foxtail, Giant plant response rating
  pest or weed control at 500 g/ha: 100%
[4]; 125 g ai/ha, Preemergence, visual injury rating after approximately 10 d, read-out: Pigweed plant response rating (0 to 100 scale, 0 is no effect, 100 is complete control)
  pest or weed control at 125 g/ha: 20%
[4]; 500 g ai/ha, preemergence, visual injury rating about 10 d after treatment, 0 to 100 scale (0 no effect, 100 complete control), read-out: Pigweed plant response rating
  pest or weed control at 500 g/ha: 40%
[5]; 125 g ai/ha, Preemergence, visual injury rating after approximately 10 d, read-out: Ragweed plant response rating (0 to 100 scale, 0 is no effect, 100 is complete control)
  pest or weed control at 125 g/ha: 10%
[5]; 500 g ai/ha, preemergence, visual injury rating about 10 d after treatment, 0 to 100 scale (0 no effect, 100 complete control), read-out: Ragweed plant response rating
  pest or weed control at 500 g/ha: 90%
[6]; 125 g ai/ha, Preemergence, visual injury rating after approximately 10 d, read-out: Ryegrass, Italian plant response rating (0 to 100 scale, 0 is no effect, 100 is complete control)
  pest or weed control at 125 g/ha: 60%
[6]; 500 g ai/ha, preemergence, visual injury rating about 10 d after treatment, 0 to 100 scale (0 no effect, 100 complete control), read-out: Ryegrass, Italian plant response rating
  pest or weed control at 500 g/ha: 80%
[7]; 125 g ai/ha, visual injury on 0 to 100 scale (0 no effect, 100 complete control), read-out: Galium plant response rating
  pest or weed control at 125 g/ha: 40%
[7]; 500 g ai/ha, visual injury, 0 to 100 scale (0 no effect, 100 complete control), read-out: Plant response rating, Galium
  pest or weed control at 500 g/ha: 60%
Kochia (Kochia scoparia) [8]; 125 g ai/ha, visual injury on 0 to 100 scale (0 no effect, 100 complete control), read-out: Kochia plant response rating
  pest or weed control at 125 g/ha: 40%
Kochia (Kochia scoparia) [8]; 500 g ai/ha, visual injury, 0 to 100 scale (0 no effect, 100 complete control), read-out: Plant response rating, Kochia
  pest or weed control at 500 g/ha: 60%
[9]; [16]
  pest or weed control at 125 g/ha: 90%
[9]; [17]
  pest or weed control at 500 g/ha: 90%
[10]; [16]
  pest or weed control at 125 g/ha: 30%
[10]; [17]
  pest or weed control at 500 g/ha: 40%
Corn (Zea mays); [16]
  Corn plant response rating (crop injury, 0 = no effect, 100 = complete kill) at 125 g/ha: 70%
Corn (Zea mays); [17]
  Corn plant response rating (crop injury, 0 = no effect, 100 = complete kill) at 500 g/ha: 70%
[11]; 125 g ai/ha, visual injury on 0 to 100 scale (0 no effect, 100 complete control), read-out: Foxtail, Giant plant response rating
  pest or weed control at 125 g/ha: 90%
[11]; 500 g ai/ha, visual injury, 0 to 100 scale (0 no effect, 100 complete control), read-out: Plant response rating, Foxtail, Giant
  pest or weed control at 500 g/ha: 90%
[12]
  pest or weed control at 125 g/ha: 0%
[13]
  pest or weed control at 125 g/ha: 10%
[14]
  pest or weed control at 125 g/ha: 50%
[15]
  plant injury at 125 g/ha: 50%

— patent publication US12077503B2, “Substituted cyclic amides and their use as herbicides” (FMC CORPORATION, priority 2015, dated 2024)
